# Measured values: ChEMBL document CHEMBL1201862, “PubChem BioAssay data set” (2004)
# Several values for one entry are separate records, joined by “and”; a condition that tells them apart may be missing. Equal values may be shown once.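 Test compounds were applied to cells in 96-well plates for 48 hours at 5 doses. GI50 is the concentration that inhibits growth by half.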 Activity calls are given as the source filed them. Rule as the data show it: active = GI50 up to about 1.1 µM and inactive = higher. Where a SMILES comes first, the peptide text is derived from it. [ ]: non-standard residue; d: D form. The star is where a group is joined. 2Nal = N[CH](Cc1ccc2ccccc2c1)C(=O)O; Boc = CC(C)(C)OC(=O)*; OBn = c1ccc(CO*)cc1
# Legend:
# Assay in all cases: NCI tumour cell line growth inhibition, 48 h
# MOLT-4 = tested on: MOLT-4
# DU-145 = tested on: DU-145
# HOP-62 = tested on: HOP-62
# HT-29 = tested on: HT-29
# Hs-578T = tested on: Hs-578T
# SF-295 = tested on: SF-295
# SF-268 = tested on: SF-268
# UACC-257 = tested on: UACC-257
# SNB-19 = tested on: SNB-19
# HL-60 = tested on: HL-60
# 786-0 = tested on: 786-0
# OVCAR-3 = tested on: OVCAR-3
# OVCAR-4 = tested on: OVCAR-4
# NCI-H460 = tested on: NCI-H460
# A549 = tested on: A549
# EKVX = tested on: EKVX
# KM12 = tested on: KM12
# TK-10 = tested on: TK-10
# SK-MEL-28 = tested on: SK-MEL-28
# SF-539 = tested on: SF-539
SMILES,GI50 (MOLT-4),GI50 (DU-145),GI50 (HOP-62),GI50 (HT-29),GI50 (Hs-578T),GI50 (SF-295),GI50 (SF-268),GI50 (UACC-257),GI50 (SNB-19),GI50 (HL-60),GI50 (786-0),GI50 (OVCAR-3),GI50 (OVCAR-4),GI50 (NCI-H460),GI50 (A549),GI50 (EKVX),GI50 (KM12),GI50 (TK-10),GI50 (SK-MEL-28),GI50 (SF-539)
CC1OC(OC2C(OC(=O)[C@]34CCC(C)(C)C[C@H]3C3=CC[C@@H]5[C@@]6(C)CC[C@H](OC7OC(C(=O)O)C(O)C(O)C7O)C(C)(C)[C@@H]6CC[C@@]5(C)[C@]3(C)C[C@H]4O)OCC(O)C2O)C(O)C(O)C1OC1OCC(O)C(O)C1O (stereo partly drawn),16 µM (inactive) and 27 µM (inactive),15.3 µM (inactive) and 13.9 µM (inactive),17.7 µM (inactive) and 14.4 µM (inactive),7.62 µM (inactive) and 5.18 µM (inactive),19.8 µM (inactive) and 21.3 µM (inactive),10.1 µM (inactive) and 15.5 µM (inactive),11.6 µM (inactive) and 19.3 µM (inactive),16.8 µM (inactive) and 16.4 µM (inactive),12.6 µM (inactive) and 8.09 µM (inactive),8.93 µM (inactive),14.8 µM (inactive) and 12.6 µM (inactive),15.3 µM (inactive) and 17.7 µM (inactive),17.8 µM (inactive),22 µM (inactive) and 17 µM (inactive),,,,,,
Cc1ccc(S(=O)(=O)NC(=O)Nc2ccc(S(N)(=O)=O)cc2S(N)(=O)=O)cc1,> 100 µM (inactive),> 100 µM (inactive),> 100 µM (inactive),> 100 µM (inactive),> 100 µM (inactive),> 100 µM (inactive),> 100 µM (inactive),> 100 µM (inactive),> 100 µM (inactive),> 100 µM (inactive),> 100 µM (inactive),> 100 µM (inactive),> 100 µM (inactive),,> 100 µM (inactive),> 100 µM (inactive),> 100 µM (inactive),> 100 µM (inactive),> 100 µM (inactive),
C=C(CN)CO[Si](C)(C)C(C)(C)C,> 100 µM (inactive),> 100 µM (inactive),> 100 µM (inactive),> 100 µM (inactive),> 100 µM (inactive),> 100 µM (inactive),> 100 µM (inactive),> 100 µM (inactive),> 100 µM (inactive),> 100 µM (inactive),> 100 µM (inactive),> 100 µM (inactive),,> 100 µM (inactive),> 100 µM (inactive),> 100 µM (inactive),> 100 µM (inactive),77.1 µM (inactive),> 100 µM (inactive),> 100 µM (inactive)
COc1cccc2c1C(=O)c1c(O)c3c(c(O)c1C2=O)C[C@H](O)C[C@@H]3OC1CC(N)C(O)C(C)O1 (stereo partly drawn),< 0.01 µM (active),1.76 µM (inactive),1.49 µM (inactive),2.09 µM (inactive),0.802 µM (active),1.44 µM (inactive),1.57 µM (inactive),1.58 µM (inactive),3.36 µM (inactive),,1.32 µM (inactive),1.85 µM (inactive),4.36 µM (inactive),< 0.01 µM (active),1.98 µM (inactive),5.21 µM (inactive),0.811 µM (active),1.49 µM (inactive),1.7 µM (inactive),1.33 µM (inactive)
CC(=O)C(C(=O)C(C)(C)C)C(=O)C(C)(C)C,> 100 µM (inactive),> 100 µM (inactive),> 100 µM (inactive),,> 100 µM (inactive),> 100 µM (inactive),> 100 µM (inactive),> 100 µM (inactive),> 100 µM (inactive),> 100 µM (inactive),> 100 µM (inactive),,> 100 µM (inactive),> 100 µM (inactive),> 100 µM (inactive),,> 100 µM (inactive),> 100 µM (inactive),> 100 µM (inactive),> 100 µM (inactive)
CC(NC(=O)C(N)Cc1ccccc1)C(=O)NC(Cc1ccc(O)cc1)C(=O)NC(Cc1c[nH]c2ccccc12)C(=O)NC(CCCCN)C(=O)NC(C(=O)NC(C)C(=O)NC(Cc1ccc2ccccc2c1)C(N)=O)C(C)C (stereo not drawn) (H-FAYWKVA[2Nal]-NH2; configuration not given here),,> 12.5 µM (inactive),> 12.5 µM (inactive),> 12.5 µM (inactive),> 12.5 µM (inactive),> 12.5 µM (inactive),> 12.5 µM (inactive),> 12.5 µM (inactive),24.6 µM (inactive),> 12.5 µM (inactive),> 12.5 µM (inactive),> 12.5 µM (inactive),> 12.5 µM (inactive),> 12.5 µM (inactive),> 12.5 µM (inactive),> 12.5 µM (inactive),> 12.5 µM (inactive),,> 12.5 µM (inactive),> 12.5 µM (inactive)
C[C@@]12CCC3C1C=C1C(=O)c4cc(O)ccc4C(=O)[C@]1(O2)[C@@]3(C)C=O,2.3 µM (inactive),2.91 µM (inactive),8.59 µM (inactive),4.67 µM (inactive),16.2 µM (inactive),11.5 µM (inactive),9.91 µM (inactive),9.16 µM (inactive),8.95 µM (inactive),1.42 µM (inactive),4.14 µM (inactive),3.72 µM (inactive),6.22 µM (inactive),2.85 µM (inactive),12 µM (inactive),9.71 µM (inactive),4.79 µM (inactive),11.6 µM (inactive),,3.82 µM (inactive)
CC1=NNC(=O)C1C1(C(=O)O)CC(c2c[nH]c3ccccc23)=NC(=S)N1 (stereo not drawn),19.4 µM (inactive),35.6 µM (inactive),20 µM (inactive),26.3 µM (inactive),15.2 µM (inactive),19.4 µM (inactive),32.1 µM (inactive),27.6 µM (inactive),29.3 µM (inactive),38.3 µM (inactive),28.3 µM (inactive),18.5 µM (inactive),,22.8 µM (inactive),37.7 µM (inactive),20 µM (inactive),15.2 µM (inactive),> 100 µM (inactive),47.1 µM (inactive),24.5 µM (inactive)
Nc1nnc(-c2ccco2)c(-c2ccco2)n1,> 100 µM (inactive),> 100 µM (inactive),,> 100 µM (inactive),> 100 µM (inactive),> 100 µM (inactive),> 100 µM (inactive),> 100 µM (inactive),> 100 µM (inactive),> 100 µM (inactive),> 100 µM (inactive),> 100 µM (inactive),> 100 µM (inactive),> 100 µM (inactive),> 100 µM (inactive),> 100 µM (inactive),> 100 µM (inactive),> 100 µM (inactive),> 100 µM (inactive),> 100 µM (inactive)
CC(C)CC(NC(=O)C(Cc1ccccc1)NC(=O)C(Cc1ccccc1)NC(=O)OC(C)(C)C)C(=O)OCc1ccccc1 (stereo not drawn) (Boc-Phe-Phe-Leu-OBn; configuration not given here),> 100 µM (inactive),> 100 µM (inactive),> 100 µM (inactive),> 100 µM (inactive),> 100 µM (inactive),> 100 µM (inactive),> 100 µM (inactive),> 100 µM (inactive),> 100 µM (inactive),> 100 µM (inactive),> 100 µM (inactive),> 100 µM (inactive),,,> 100 µM (inactive),> 100 µM (inactive),> 100 µM (inactive),> 100 µM (inactive),> 100 µM (inactive),> 100 µM (inactive)
CCC(=O)Nc1ccc(NCC(=O)Nc2ccc(Cl)cc2)cc1,21 µM (inactive),17.9 µM (inactive),13.7 µM (inactive),10.6 µM (inactive),37 µM (inactive),14.4 µM (inactive),22.6 µM (inactive),16.6 µM (inactive),19.8 µM (inactive),14.1 µM (inactive),17.2 µM (inactive),15.7 µM (inactive),14 µM (inactive),,19.7 µM (inactive),14 µM (inactive),12.7 µM (inactive),,19.9 µM (inactive),18.1 µM (inactive)
CNC(=O)OCc1c(COC(=O)NC)c(-c2ccc(Cl)c(Cl)c2)n2c1SCC2,12 µM (inactive),17.2 µM (inactive),17.8 µM (inactive),10 µM (inactive),21 µM (inactive),13.6 µM (inactive),13.3 µM (inactive),10.4 µM (inactive),29.2 µM (inactive),7.29 µM (inactive),16.7 µM (inactive),16.7 µM (inactive),,9.04 µM (inactive),23.2 µM (inactive),19.8 µM (inactive),17.5 µM (inactive),2.86 µM (inactive),10.8 µM (inactive),15.5 µM (inactive)
O=C(OCC(OC(=O)c1ccccc1)C1CC(C(O)C2CCCCC2)C(=O)O1)c1ccccc1 (stereo not drawn),22 µM (inactive),> 100 µM (inactive),49.5 µM (inactive),,> 100 µM (inactive),86.7 µM (inactive),91.8 µM (inactive),> 100 µM (inactive),59 µM (inactive),16.4 µM (inactive),> 100 µM (inactive),35.3 µM (inactive),32.7 µM (inactive),25.9 µM (inactive),,> 100 µM (inactive),41.8 µM (inactive),> 100 µM (inactive),,25.1 µM (inactive)
O=C1N(CN2CCOCC2)CN(CN2CCOCC2)C(=O)N1Cc1ccc(-c2ccc(CN3C(=O)N(CN4CCOCC4)CN(CN4CCOCC4)C3=O)cc2)cc1,4.19 µM (inactive),16.8 µM (inactive),21.6 µM (inactive),19.6 µM (inactive),26.2 µM (inactive),23.2 µM (inactive),14.2 µM (inactive),13.8 µM (inactive),10.3 µM (inactive),,9.16 µM (inactive),7.78 µM (inactive),14 µM (inactive),15.9 µM (inactive),20.8 µM (inactive),21.7 µM (inactive),4.73 µM (inactive),16.5 µM (inactive),12.9 µM (inactive),> 27.8 µM (inactive)
